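Cells were grown in 96-well plates and exposed to each compound for 48 hours at five concentrations; endpoints were interpolated linearly between bracketing concentrations, or set to the highest concentration if not reached. The concentration for 50% growth inhibition is given as GI50. At the TGI there is no net growth.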

Drawing on PubChem BioAssay (NCI), this text covers GI50 and TGI for 44 compounds.

The experiment has as its system MDA-MB-468 breast. Nature of the experiment: NCI anticancer screen, dose series, 48 h.

On to `CN(C)CCS(=O)(=O)Nc1cc(-c2ccc3ncnc(Nc4ccc(F)c(Cl)c4)c3c2)cnc1Cl`, for which the GI50 was 0.133 µM and the TGI was found to be 0.449 µM.

For the compound `O=C1C2C(C(=O)N1CC[Se][Se]CCN1C(=O)C3C(C1=O)[C@H]1C=C[C@@H]3C1)[C@H]1C=C[C@@H]2C1` (some centres not stated), the GI50 is 0.324 µM and the TGI worked out at 1.32 µM.

For `CC(C)C/C(=N\NC(=O)c1ccncc1)c1cc(Cl)ccc1O`, the GI50 is 0.288 µM and the TGI is 1.97 µM.

Take `CCOC(=O)c1cc2cc(OCc3ccccc3)ccc2[nH]1`: the GI50 was > 100 µM and the TGI is > 100 µM.

Turning to `CCc1c(C#N)c(SC(C(N)=O)c2ccccc2)nc(N2CCC(N)CC2)c1C#N` (configuration not stated), the GI50 is 3.53 µM and the TGI worked out at 16.4 µM.

`Cc1ccc(-c2nc(C(Cl)Cl)nc3cc(C)nn23)cc1`: the GI50 is 0.259 µM and the TGI amounted to 0.957 µM.

As to `C=CC[PH+](c1ccccc1)c1ccccc1.C=CC[PH+](c1ccccc1)c1ccccc1.[Pt+2].[S-]c1ncccn1.[S-]c1ncccn1`, the GI50 is 3.06 µM and the TGI was 13.9 µM.

`O=C(Nc1cccc(-n2cc(-c3ccncc3)c(-c3ccc(O)c(Cl)c3)n2)c1)Nc1ccc(Cl)c(Cl)c1`: the GI50 is 1.96 µM and the TGI is 6.65 µM.

Turning to `CN(c1ccc(NC(=O)NCCN2CCOCC2)cc1)c1ccnc(Nc2ccc(CS(C)(=O)=O)cc2)n1`, the GI50 is 8.21 µM and the TGI is > 25 µM.

With `CN(C)c1ccc2c(c1)OC(N)=C(C#N)C2c1ccc2c(c1)CCCN2C` (configuration not stated), the GI50 was 1.62 µM and the TGI came out at 42.5 µM.

As for `Cc1n(Cc2ccc3ccccc3n2)cc[n+]1Cc1ccc2ccccc2c1`, the GI50 was 0.27 µM and the TGI stood at 1.58 µM.

`COC(=O)C1=Nc2ccc(F)cc2/C1=C/c1sc(=S)[nH]c1O`: the GI50 was 0.354 µM and the TGI came out at 2.95 µM.

Turning to `CCN(CC)Cc1cc(Nc2cc(C(F)(F)F)c(C#N)c3nc4ccccc4n23)ccc1O`, the GI50 was 0.228 µM and the TGI was 3.69 µM.

For `Cc1nn2c(-c3nc4cc(Cl)c(Cl)cc4[nH]3)c(-c3ccc(F)cc3)nc2s1`, the GI50 is > 29.1 µM and the TGI was > 100 µM.

In the case of `Cc1ccc(C(=O)N2C/C(=C/c3ccccc3)C(=O)/C(=C/c3ccccc3)C2)cc1`, the GI50 is 2.23 µM and the TGI came out at 10.7 µM.

Turning to `Cc1ccc(O)cc1Nc1ccnc2cc(-c3ccccn3)ccc12`, the GI50 was 0.736 µM and the TGI came out at 3.57 µM.

Regarding `Oc1ccc(-c2[nH]c3ccccc3c2-c2nc3ccccc3o2)cc1`, the GI50 was 1.36 µM and the TGI was determined as 5.98 µM.

With `Nc1c(C(=O)Nc2ccccn2)sc2nc3c(cc12)CCCCCC3`, the GI50 is 0.435 µM and the TGI stood at 7.13 µM.

Take `CCN(CCNc1ccc(C)c2sc3cc(Cl)ccc3c(=O)c12)CC(C)(C)O`: the GI50 is 3.49 µM and the TGI was found to be 10.4 µM.

`COc1cc(/C=N/Nc2ccnc3cc(Cl)ccc23)cc(OC)c1O`: the GI50 is 1.65 µM and the TGI was found to be 3.28 µM.

`CCN(CC)C(=O)CCCCCn1c2ccccc2c2c3c(c4c5ccccc5[nH]c4c21)C(=O)N(O)C3=O`: the GI50 was 5.79 µM and the TGI is > 100 µM.

Take `CCOc1cc2c(cc1O)CC[C@@H]1[C@@H]2CC[C@]2(C)[C@@H](O)CC[C@@H]12`: the GI50 was 4.96 µM and the TGI is 31.8 µM.

Turning to `C=C(C)[C@@H]1CC[C@]2(C(=O)n3ccnc3)CC[C@]3(C)[C@H](CC[C@@H]4[C@@]5(C)CCCNC(C)(C)[C@@H]5CC[C@]43C)[C@@H]12`, the GI50 is 1.9 µM and the TGI came to 3.53 µM.

Take `OC(c1cc(-c2ccc(Cl)cc2)nc2c(Cl)cccc12)C1CCCCN1` (configuration not stated): the GI50 is 1.74 µM and the TGI is 3.26 µM.

For the compound `O=C(/C=C/c1cccc(Oc2ccc(Cl)cc2)c1)c1ccccc1`, the GI50 is 101 µM and the TGI is 338 µM.

For `CCN(CC)CCCNc1c2ccc(Cl)cc2nc2ccc(OC)cc12`, the GI50 was 0.0711 µM and the TGI was found to be 2.71 µM.

`CC/C(=C(/c1ccc(/C=C/C(=O)O)cc1)c1ccc2[nH]ncc2c1)c1ccc(F)cc1Cl`: the GI50 was 15.1 µM and the TGI turned out to be 42.8 µM.

Regarding `CS(=O)(=O)c1ccc2c(c1)c1c(n2C(=O)c2ccc(Cl)cc2)CCCC1`, the GI50 is 2.09 µM and the TGI was > 100 µM.

Regarding `O=C(Nc1nc2c(s1)CCc1c-2c(Br)n(Cc2ccccc2)c1Br)c1ccccc1`, the GI50 was 8.28 µM and the TGI is > 100 µM.

Turning to `N=C(N)c1ccc(OCCCCCOc2ccc(C(=N)N)cc2)cc1`, the GI50 was 0.466 µM and the TGI is 5.83 µM.

Consider `Nc1n[nH]c2ccc([C@@H]3Nc4c(F)cc5[nH]ncc5c4[C@H]4C5CCC(C5)[C@@H]34)cc12` (some centres not stated), for which the GI50 is 0.116 µM and the TGI came to 0.621 µM.

Consider `Oc1c(I)cc(Cl)c2cccnc12`, for which the GI50 was 2.05 µM and the TGI amounted to 5.13 µM.

For the compound `COc1cc(OC)c(/C=C/C(=O)c2c(N)cc(OC)cc2OC)c(OC)c1`, the GI50 was 0.322 µM and the TGI is 7.26 µM.

As for `CCN(CC)CCS(=O)(=O)CCNc1ccnc2cc(Cl)ccc12`, the GI50 was 0.711 µM and the TGI amounted to 1.91 µM.

`CCc1ccc(C2=NN(c3ccc(S(C)(=O)=O)cc3)C(=O)CC2)cc1`: the GI50 was 4.43 µM and the TGI was 43.7 µM.

As for `Nc1ccn([C@@H]2S[C@H](CO)[C@@H](O)[C@@H]2F)c(=O)n1`, the GI50 was 3.25 µM and the TGI was > 88.6 µM.

In the case of `CCN(CC)C(=S)SSCCO`, the GI50 was 15 µM and the TGI was 28.9 µM.

Take `N#Cc1cccc(C2C3=C(COC3=O)N(CCO)c3cc4c(cc32)CCC4)c1` (configuration not stated): the GI50 is 0.115 µM.

Regarding `CC1(C)N=C(N)N=C(N)N1c1ccc(OCCCCNC(=O)Nc2cccc(S(=O)(=O)F)c2)c(Cl)c1`, the GI50 is 3.47 µM and the TGI is > 100 µM.

With `O=S(=O)(NCCCNc1nccc(-c2c(-c3cccc(F)c3)nc3occn23)n1)c1cccc2ccccc12`, the GI50 is 4.86 µM and the TGI was > 100 µM.

In the case of `Cc1ccc(NC2=CC(=O)C(=O)c3ccccc32)c(C)c1`, the GI50 is 2.56 µM and the TGI amounted to 8.61 µM.

In the case of `Cc1cc(-c2ccco2)cc(C)c1/C=C/c1cncc(-c2nn[nH]n2)c1`, the GI50 was > 25 µM and the TGI was > 25 µM.

Take `COc1ncc2cc1NS(=O)(=O)c1cccc(c1)C(=O)NCC1=CC=C(S1)c1ncnc3c1SC2=C3C`: the GI50 is 0.072 µM and the TGI turned out to be 0.234 µM.

With `Cc1ccccc1CNc1c2ccccc2nc2ccccc12`, the GI50 is 1.88 µM and the TGI is 4.89 µM.
